Assay results taken from patent US20220362299A1, “ENGINEERED NATURAL KILLER CELLS AND METHODS FOR USING THE SAME IN IMMUNOTHERAPY AND AUTOPHAGY INHIBITON TECHNIQUES” (Purdue Research Foundation, priority 2019, published 2022).
Like-named read-outs stand apart in the source and are kept apart here.

What was measured:
GBM43 cells [1] = assay: Chemokine mRNA in GBM43 cells by RT-PCR; format: cell-based, human; settings: vs control
Protocol: Total RNAs were extracted using the mirVana™ miRNA Isolation Kit and the concentrations determined with a Qubit 4 Fluorometer. The RNA (80 ng) from each sample was reverse-transcribed using the qScript™ One-Step SYBR® Green qRT-PCR kit in a ViiA-7 RT-PCR system (Thermo Fisher Scientific, Waltham, Mass.). The GAPDH gene was used as the endogenous control. The comparative Ct values of genes of interest were normalized to the Ct value of GAPDH. The 2^−Δct method was used to determine the relative expression of the genes, while the 2^−ΔΔct method was used to calculate fold changes of gene expression over control.

GBM43 cells [2] = assay: ELISA of CCL5 and CXCL10 in supernatant of GBM43 cells; format: cell-based, human; settings: CQ 50 μM, 24 h
Source text: To evaluate changes in the protein levels of these chemokines and gain more insight into the underlying molecular mechanisms, chemokine concentrations were quantified in the conditioned media of CQ-treated GBM43 cells using ELISA in absence and presence of various pharmacological inhibitors driving signaling pathways for these chemokines. This included the PI3K inhibitor LY294002, NF-κB inhibitor BAY11-7082 and JNK inhibitor SP600125.
More specifically, to measure secreted CCL5 and CXCL10, GBM43 cells were treated with CQ at a final concentration of 50 μM in presence or absence of various small molecule inhibitors, including LY294002, BAY11-7082 and SP600125 for 24 hours. Supernatants were collected and the levels of CCL5 and CXCL10 were quantified using Human CCL5 and CXCL10 Biolegend-ELISA MAX™ Deluxe Sets according to the manufacturer's directions. To look at the levels of multiple chemokines secretion from GBM43 cells, the cell culture supernatants were also collected and all the selected targets were determined with the chemokine array provided by Eve Technologies (Calgary, Canada).

CD73 = CD73 activity of GBM43 cells (AMP hydrolysis, malachite green phosphate assay); format: cell-based, human; settings: various concentrations of CQ, 24 h
Protocol: To test for CD73 activity and its ability to generate adenosine, GBM43 cells were seeded at 2×10^4 cells per well in a 96-well plate in complete DMEM. After overnight incubation, GBM43 cells were incubated with anti-CD73 scFv following uPA (100 nM)-mediated cleavage from either CD73.mCAR-NK92 or CD73.mCAR-pNK cells during incubation for 6 hours. Then, the cell medium was removed and cells were rinsed three times with phosphate-free buffer (117 mM NaCl, 5.3 mM KCl, 1.8 mM MgCl2, 26 mM NaHCO3, 10 mM glucose, pH 7.4, diluted in ddH2O). AMP (250 μM final), diluted in phosphate-free buffer, was added and incubated for 10 min at 37° C. Finally, the phosphate (Pi) concentrations resulting from AMP hydrolysis were measured using a malachite green phosphate assay kit following the manufacturer's instructions.

GBM43-Luc cells = assay: Orthotopic GBM43 (Luc) xenograft model; format: in vivo, NSG mice
Protocol: Additionally, orthotopic GBM xenografts were generated using NSG mice as previously described. Briefly, on day 0, the GBM43 (Luc) cells (1×10^5) were stereotactically implanted into the right forebrain through a digitalized stereotactic delivery system. […] CD73.mCAR-pNK cells were administered once a week for three weeks. Tumor volumes were monitored and recorded using the Spectral Ami Optical imaging system. Body weights of the mice were also recorded during the treatment period. At the end of the treatment, the mice were sacrificed and whole brain tissues from each mouse were harvested for adenosine measurement and IHC/IF analyses.
Immunohistochemistry (IHC) and immunofluorescence (IF) staining were carried out at the Histology Research Laboratory at the Purdue University College of Veterinary Medicine (West Lafayette, Ind.). Briefly, the tumors were fixed in 10% neutral-buffered formalin, embedded in paraffin, and cut into 3-5 μm sections.
For intracranial GBM xenografts, the NK cells in tumors were detected through the staining using human NKp46/NCR1 antibody. CCL5 and CXCL10 expression in the tumors were detected through the staining using human CCL5/RANTES antibody and CXCL10 antibody, respectively. CD73 expression in the tumors was detected through the staining using human CD73 antibody.
In addition to the foregoing, intratumoral adenosine concentrations were also assessed. Brain tissues were harvested post-treatment, rinsed with cold PBS and homogenized in PBS. After that, the suspension was centrifuged at 10,000 g for 10 minutes at 4° C. and the supernatant was collected. Adenosine concentrations were determined using an Adenosine Assay Kit according to the manufacturer's directions. The IHC staining was performed as described above.

GBM43 cells [3] = assay: Surface expression of NKG2DL, CD73 and GD2 on GBM43 cells after CQ (flow cytometry); format: cell-based, human; settings: 24 h
Protocol: In addition to the increase in NK cell intratumoral infiltration, NK2G2DL expression (MFI and percentage) on GBM43 cells after 24 hours of treatment with various concentrations of CQ was evaluated.

GBM43 cells [4] = assay: GBM43 cell viability after CQ treatment (CCK-8); format: cell-based, human; settings: 24 h
Protocol: Alternatively, autophagy was inhibited pharmacologically via treatment with chloroquine (CQ), a common FDA-approved autophagy inhibitor (see FIG. 11). These targeting approaches were tested on both NK cell infiltration and effector functions. For this approach, GBM43 cells were treated with different concentrations of CQ. To determine in vitro cell viability in response to CQ, GBM43 cells were seeded in 96-well plates at a density of 1×10^4 cells/well. After overnight culture, the cells were treated with different concentrations of CQ and incubated for another 24 hours. The cell viability was then determined with CCK-8 assay analysis.

GBM = settings: chronic administration, controlled randomized trial / Phase III, diphosphate salt, cited from earlier work

Chloroquine diphosphate salt [CQ]
CCL5 mRNA in GBM43 cells (GBM43 cells [1]; CQ-treated): substantial upregulation | CXCL10 mRNA in GBM43 cells (GBM43 cells [1]; CQ-treated): substantial upregulation | CCL2 mRNA in GBM43 cells (GBM43 cells [1]; inhibition of autophagy): decreased transcriptional levels | CXCL12 mRNA in GBM43 cells (GBM43 cells [1]; inhibition of autophagy): decreased transcriptional levels | secreted CCL5 vs untreated control cells (GBM43 cells [2]): significantly higher amounts | secreted CXCL10 vs untreated control cells (GBM43 cells [2]): significantly higher amounts | production of adenosine in GBM cells mediated by CD73 (CD73): significantly reduced | tumor growth (bioluminescence imaging) (GBM43-Luc cells; CQ 50 mg/kg IP, CD73.mCAR-pNK intracranial, weekly for three weeks, vs control group): no significant effect | CCL5 expression in tumor tissues (IHC) (GBM43-Luc cells; mouse, in vivo): robustly up-regulated | CXCL10 expression in tumor tissues (IHC) (GBM43-Luc cells; mouse, in vivo): robustly up-regulated | crossing of the blood-brain barrier in vivo (GBM43-Luc cells; mouse, in vivo): able to cross the blood-brain barrier | expression of CD73 (MFI) on GBM43 cells (GBM43 cells [3]; CQ 6.25 μM): ~70 % of control | expression of GD2 (MFI) on GBM43 cells (GBM43 cells [3]; CQ 50 μM or higher): decreased | NKG2DL expression (% and MFI) on GBM43 cells (GBM43 cells [3]; CQ at various concentrations): increased significantly | percentage expression (%) of GD2 on GBM43 cells (GBM43 cells [3]; CQ up to 100 μM then constant, control cells ~58%): ~46% | IC50 (GBM43 cells [4]): 67.1 µM | response of GBM to antineoplastic therapy with added chloroquine (GBM): enhance clinical responses | response of GBM to antineoplastic therapy with added chloroquine (GBM; listed as chloroquine (CQ)): significantly enhanced response
